Laboratory results taken from ChEMBL document CHEMBL1140760, “Molecular docking identifies the binding of 3-chloropyridine moieties specifically to the S1 pocket of SARS-CoV Mpro” (Bioorg Med Chem, 2008).

experiment: Inhibition of SARS-CoV Mpro; design: species or system Severe acute respiratory syndrome-related coronavirus

Which IC50 does the source give for `O=C(Oc1cncc(Cl)c1)c1cccc([N+](=O)[O-])c1` here?
Its IC50 is 684 nM.

With `O=C(Oc1cncc(Cl)c1)c1ccccc1[N+](=O)[O-]` as the molecule, how does the IC50 read?
Its IC50 is 333 nM.

With `O=C(Oc1cncc(Cl)c1)c1ccc(-c2ccc([N+](=O)[O-])cc2)o1` as the molecule, how does the IC50 read?
Its IC50 is 60 nM.

For `O=C(Oc1cncc(Cl)c1)c1ccc(-c2ccc(Cl)cc2[N+](=O)[O-])o1`, which IC50 is on record?
Its IC50 is 122 nM.

Which IC50 does the source give for `O=C(Oc1cncc(Cl)c1)c1cccc2ccccc12` here?
The IC50 was 124 nM.

Which IC50 does the source give for `O=C(Oc1cncc(Cl)c1)c1ccc(-c2cccc([N+](=O)[O-])c2)o1` here?
The IC50 was 500 nM.

For `O=C(Oc1cncc(Cl)c1)c1ccc(-c2ccc(Cl)cc2)o1`, which IC50 is on record?
Its IC50 is 63 nM.

With `O=C(Oc1cncc(Cl)c1)c1ccc(-c2ccccc2[N+](=O)[O-])o1` as the molecule, how does the IC50 read?
The IC50 was 208 nM.

For `O=C(Oc1cncc(Cl)c1)c1cc2ccccc2oc1=O`, which IC50 is on record?
The IC50 was 108 nM.
